Laboratory results published in patent US8772277B2, “Nitrogen-containing heterocyclic compound” (Takeda Pharmaceutical Company Limited, priority 2011, dated 2014).

What was measured:
[1] = target: T1, GST-ERR-α ligand-binding domain (Homo sapiens, UniProt P11474); assay: HTRF assay system using ERR-α ligand-binding domain (inverse agonist activity, biotinylated SRC-1 (676-700) peptide); format: biochemical; conditions: compound final concentration 30 μM; 665/620 ratio; no compound = 0%, 10 μM XCT-790 = 100%; read-out: inhibition rate (%) at 30 μM
T1 sequence (P11474 193-421 limits assumed): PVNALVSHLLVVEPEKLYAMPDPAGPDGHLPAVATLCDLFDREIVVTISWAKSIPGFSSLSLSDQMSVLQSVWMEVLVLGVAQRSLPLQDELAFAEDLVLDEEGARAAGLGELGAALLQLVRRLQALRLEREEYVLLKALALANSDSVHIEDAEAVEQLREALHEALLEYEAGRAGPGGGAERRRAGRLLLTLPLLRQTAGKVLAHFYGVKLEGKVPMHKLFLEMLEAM
Description: Experimental Example 1 Compound Evaluation in HTRF Assay System Using ERR-α Ligand-Binding Domain
An assay buffer (25 mM HEPES, 100 mM NaCl, 1 mM DTT, 0.1% BSA) containing 5 nM GST-ERR-α ligand-binding domain (final concentration 1.25 nM) was added to a 384 well plate, then 40 μM N-[5-(trifluoromethyl)-1,3,4-thiadiazol-2-yl]-2-cyano-3-[3-methoxy-4-[2,4-di(trifluoromethyl)benzyloxy]phenyl]propenamide (XCT-790) (final concentration 10 μM), or 120 μM compound (final concentration 30 μM) was added. Furthermore, an assay buffer containing XL665 conjugated Streptavidin, Eu^3+ criptate conjugated GST antibody and 200 nM biotinylated SRC-1 (676-700) (final concentration 100 nM) was added, and the mixture was reacted at room temperature for 2 hr. Using Multiplate reader Envision (Perkin Elmer Inc.), after excitation at 320 nm, fluorescence values at 620 nm and 665 nm were measured. The inverse agonist activity of the compound was calculated in percentage with the 665/620 ratio value inhibited by no addition of compound as 0%, and with addition of final concentration 10 μM of XCT-790 as 100%.

[2] = target: T2, fusion protein containing GAL4-DNA-binding domain and ERR full-length (Homo sapiens, UniProt P11474); assay: Reporter assay system using 293T cells (GAL4-ERR luciferase, inverse agonist activity); format: cell-based; conditions: HEK-293T, compound final concentration 3 μM, no compound = 0%, 10 μM XCT-790 = 100%, read-out: inhibition rate (%) at 3 μM
T2 construct: expressed in transfected cells; host or cells: 293T cells
T2 sequence (P11474 1-423): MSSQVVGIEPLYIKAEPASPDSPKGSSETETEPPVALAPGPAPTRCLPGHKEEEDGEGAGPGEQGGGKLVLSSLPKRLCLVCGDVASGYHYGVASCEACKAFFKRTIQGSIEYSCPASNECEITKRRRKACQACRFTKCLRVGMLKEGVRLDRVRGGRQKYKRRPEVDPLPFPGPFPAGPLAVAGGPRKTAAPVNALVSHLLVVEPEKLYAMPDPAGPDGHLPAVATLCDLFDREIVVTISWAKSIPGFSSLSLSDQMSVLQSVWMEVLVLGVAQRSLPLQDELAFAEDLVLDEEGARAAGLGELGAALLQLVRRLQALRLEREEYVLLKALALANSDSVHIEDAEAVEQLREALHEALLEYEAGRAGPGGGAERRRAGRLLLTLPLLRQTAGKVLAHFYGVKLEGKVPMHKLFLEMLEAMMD
Description: Experimental Example 2 Compound Evaluation in Reporter Assay System Using 293T Cells
293T cells derived from human kidney were seeded in a 150 cm^2 flask by 6,000,000 cells, and cultured in a medium (DMEM medium containing 10% inactivated Fetal Bovine Serum sterile filtered (FBS), […] Gentamicin, 10 mM HEPES buffer (pH 7.4)) at 37° C. in the presence of 5% CO2 for 1 day.
Then, vector DNA having a gene encoding a fusion protein, containing GAL4-DNA-binding domain and ERR full-length and a vector DNA wherein luciferase gene is fused at the downstream of GAL4-binding-sequence were cotransfected by a lipofection method, and the cells were cultured at 37° C. in the presence of 5% CO2 for 1 day. The cells were recovered, sown in a 384 well plate by 15,000 cells, and cultured at 37° C. in the presence of 5% CO2 for 3 hrs. Furthermore, 50 μM N-[5-(trifluoromethyl)-1,3,4-thiadiazol-2-yl]-2-cyano-3-[3-methoxy-4-[2,4-di(trifluoromethyl)benzyloxy]phenyl]propenamide (XCT-790) (final concentration 10 μM) or 15 μM compound (final concentration 3 μM) was added, and the cells were cultured at 37° C. in the presence of 5% CO2 for 1 day. The luciferase activity was measured by using multiplate reader Envision (Perkin Elmer Inc.). The inverse agonist activity of the compound was calculated in percentage with the luciferase activity inhibited by no addition of compound as 0%, and with addition of final concentration 10 μM of XCT-790 as 100%.

MDA-MB-231-luc cells = assay: Antitumor test using MDA-MB-231-luc cells (subcutaneous transplant); format: in vivo, Balb/c nu/nu mice; conditions: 100 mg/kg orally twice per day, dosing period 15 days; change in tumor volume, vehicle group = 100%
Description: Experimental Example 3 Antitumor Test using MDA-MB-231-luc Cells
6-Week-old Balb/c nu/nu mice were transplanted subcutaneously with 5×10^6 cells/100 μL, and the mice were grouped according to the body weight and tumor volume after 1 to 2 weeks. Vehicle (0.5% MC) or a compound was administered orally to mice (6 mice per group). The administration was twice per day and performed continuously during the dosing period. Setting the change in tumor volume of the vehicle-treated group as 100%, the change rate in tumor volume of the compound-treated group (□/C %) was calculated.

inhibition at 30 µM [1]: 105% | inhibition at 3 µM [2]: 89%
Compound: O=C1N=C(NCCOCCO)/C(=C/C2CCN(Cc3ccc(C(F)(F)F)cc3C(F)(F)F)CC2)S1 [Example 13, (5Z)-5-({1-[2,4-bis(trifluoromethyl)benzyl]piperidin-4-yl}methylidene)-4-{[2-(2-hydroxyethoxy)ethyl]amino}-1,3-thiazol-2(5H)-one ditoluenesulfonate]
T/C (%) (MDA-MB-231-luc cells): 20%
